A melting point compilation (Tetko et al.; mined from patent text by program, amines drawn as free bases though some values may be those of a salt)

SMILES	melting point
Cc1csc(NC(=O)C(C(=O)OC(C)C)=C2SCCS2)n1	161 to 162 °C
CC1(C)COc2ccc(S(=O)(=O)n3c(Cc4ccccc4C(=O)O)cc4cc(Cl)ccc43)cc21	190 °C
COCOc1ccc(C=C[N+](=O)[O-])cc1OCc1ccccc1	75 to 76 °C
COc1cc(C(=O)Nc2c(C)cc3cn(CC(F)(F)F)nc3c2C(=O)NC(C)C)n(-c2ncccc2Cl)n1	178 to 181 °C
Nc1cccc(S(=O)(=O)C(F)(F)C(F)Cl)c1 (stereo unspecified)	66 to 67.5 °C
O=C1CCC2CCC(=O)N12	179 to 182 °C
Cc1cccc2c1sc1nc(C(F)(F)F)nn12	80 to 81 °C
COc1cc(Br)c(C(C)=O)cc1OC(C)C	59 to 59.9 °C
COc1ccc(C(=O)OC2C=C(C)C(=O)CC(C)(C)C2O)cc1OC (stereo unspecified)	161 to 164 °C
CC(C)CCC(=O)C(C(=O)O)C1c2ccccc2C(=O)N1c1ccc2ccc(Cl)nc2n1 (stereo unspecified)	176 °C
Cc1ccc(CSC[C@H](NC(=O)C(CS)Cc2ccc(-c3ccccc3)cc2)C(=O)O)cc1 (stereo partly specified)	131 to 135 °C
COc1ccc(CC2N(C)CCC(OC)(OC)C2(C)C)cc1 (stereo unspecified)	91 to 92.5 °C
CN(C)C(N)=Nc1cc(S(C)=O)ccc1N1CCOCC1 (stereo unspecified)	160 to 161 °C
O=C1N=C(N2CCOCC2)SC1=Cc1cc(-c2ccc(O)c(C34CC5CC(CC(C5)C3)C4)c2)ccc1O	325 to 330 °C
Cc1ccc2c(c1)C(C(=S)Nc1c(C(C)C)cccc1C(C)C)c1ccccc1CO2 (stereo unspecified)	140 °C
CCCCCCCCCCNC(=O)c1cc(NCC(=O)O)cc(C(=O)NCCCCCCCCCC)c1	172 to 173 °C
Cc1cccc(-c2c3c(cc4ccc(O)cc24)-c2ccc(O)cc2CO3)c1	219 to 222 °C
Nc1sc2c(c1C(=O)c1ccc3c(c1)Cc1ccccc1-3)CCCC2	146 to 149 °C
O=C(O)C1CCCCc2c(-c3ccc(Cl)cc3)noc2C1 (stereo unspecified)	215 °C
CCNc1nnc(C(C)(C)C)c(=O)n1N	177 °C
Cc1cc(-c2ccc(OC(F)(F)F)cc2)cc(-c2cccc(-c3cccc(S(=O)(=O)NC(C)(C)C)c3)n2)n1	148 °C
CSC(=S)NCc1cc(=O)c(OC(c2ccccc2)c2ccccc2)cn1OC(c1ccccc1)c1ccccc1	176 to 178 °C

SMILES	melting point
O=C(CCc1ccc(O)c(C=Nc2ccccc2O)c1)ON1C(=O)CCC1=O	170 °C
N#Cc1c[nH]c(C(N)=O)c1	253 to 256 °C
N#Cc1nc(Cl)ccc1[N+](=O)[O-]	115 to 117 °C
O=C1CNCCN1CCc1ccccc1	75 to 78 °C
c1ccc(CC2CCc3ccccc3N2)cc1 (stereo unspecified)	187 to 190 °C
CC1(C)CSc2c(-c3ccccc3)c(-c3ccc(Cl)cc3)cn2C1	147 to 148 °C
O=C1c2cccnc2N(N2CCOCC2)C2=NCCN12	225 to 226 °C
CN1CCN(c2nc(C=C3SC(=S)N(CC(=O)O)C3=O)cs2)CC1	> 300 °C
CCOC(=O)/C=C(C)/C(F)=C/C=C(C)/C=C/c1c(C)cc(OC)c(C)c1Cl	115 to 117 °C
Cc1ccc(CC(CNC(=O)C(C)c2ccc(NS(C)(=O)=O)cc2)COC(=O)C(C)(C)C)cc1C (stereo unspecified)	112 to 115 °C
Cc1cccc(NC(=O)c2nc(-c3ccccc3)c3ccccc3c2O)n1	261 to 263 °C
NN(Cc1ccccc1[N+](=O)[O-])c1ccc(Cl)cc1	105 to 106 °C
O=C(CON=C(C(=O)O)c1csc(NC(=O)C(F)(F)F)n1)OC(c1ccccc1)c1ccccc1	178 to 180 °C
Cc1coc(NC(=S)Nc2cc(Cl)ccc2C)n1	207 to 208 °C
CCN1CCC2(CC1)COc1cc3c(cc12)N(C(=O)c1ccc(-c2ccc(-c4noc(C)n4)cc2C)cc1)CC3	202 to 204 °C
O=C(OCCN1CCNC1=Nc1ccccc1N1CCOCC1)c1ccccc1	92 to 94 °C
O=C1N(Cc2ccccc2)Cc2cccnc2N1c1cccc([N+](=O)[O-])c1	144 to 145 °C
CNC(=O)N/N=C1/C(=O)N(CCN(C(C)C)C(C)C)c2ccc(C)cc21	158 °C
CN(CCN1CCN(c2cccc3c2OCCO3)CC1)c1cnn(C)c(=O)c1Cl	114 to 116 °C
CC(CN)C1=CC(C)(C(=O)O)CC=C1 (stereo unspecified)	236 to 238 °C
CCCCC(=O)Nc1ccc(C(F)(F)F)c(-n2nc(CCCC)n(Cc3ccc(-c4ccccc4S(=O)(=O)NC(=O)c4ccccc4Cl)cc3F)c2=O)c1	145 to 147 °C
CC(C)(C)c1cc2c(c(C(C)(C)C)c1)O[Si](c1ccccc1)(c1ccccc1)Oc1c(cc(C(C)(C)C)cc1C(C)(C)C)S2	202 to 205 °C

SMILES	melting point
Cc1ccc(C(=O)c2cc([N+](=O)[O-])ccc2N2CCC(C)CC2)cc1	86 °C
ON=C1CCc2cc(Cl)ccc21	181 to 182 °C
CC(C)(C)c1ccc(/C=C/C(=O)Nc2ccc3ncoc3c2)cc1	147 to 148 °C
Cc1cc(NC(=O)C(C)(O)COc2cccc(Cl)c2)ccc1[N+](=O)[O-] (stereo unspecified)	104 to 107 °C
C#CC1(O)C=CC2C3CCC4=CC(=O)CC(O)C4C3CCC21CC (stereo unspecified)	129 to 130 °C
Cc1[nH]c2ccccc2c1CCC(=O)N1CCC(O)(Cc2ccccc2)CC1	117 to 119 °C
O=C1c2ccccc2C(=O)N1CC1=Nc2ccccc2N(Cc2ccccc2)C(=O)C1	186 °C
CCOC(=O)C(=O)Nc1cc2c3c(cccc3c1[N+](=O)[O-])C(=O)OC2=O	221 to 222 °C
NC1CCN(c2ccc3c4c(cccc24)C(=O)N(O)C3=O)C1 (stereo unspecified)	238 to 242 °C
Cc1c(C)c(C=O)c2c(c1C)CCO2	90 °C
CS(=O)(=O)c1nccc(Cl)n1	91 to 93 °C
O=[N+]([O-])c1ccccc1Oc1ccc(Cl)cc1Cl	54 to 55 °C
COc1cc(OC)c2c(=O)c(I)coc2c1	158 to 160 °C
O=C(c1ccccc1)c1cccnc1-c1nc(Nc2ccc(Cl)cc2)c2ccccc2n1	190 to 192 °C
COc1cc(Br)cc2c1OCCC2=O	137 °C
c1ccc(NCC2CCNCC2)cc1	60 to 61 °C
CC1=NCN(c2cc(Br)cs2)O1	66 to 67 °C
O=[N+]([O-])c1cccc(C2C3=C(CCCS3)NC3=C2SCCC3)c1	> 260 °C
CC(C)Cn1c(=O)n(C)c(=O)c2c(S(=O)(=O)N3CC[C@@H](O)C3)c(Cc3cccnc3)sc21	161 to 162 °C
CSCc1c(C(F)(F)F)nn(C)c1O	123 to 124 °C
CCC/C=C/c1ccc(C#CC(C)(C)O)c(F)c1	62 °C
CCC(=O)N1CCC(=O)c2cc(Cl)c(Cl)cc21	135 to 137 °C

Other lines, results leading:

melting point	SMILES
153 to 155 °C	CCCN(CCC)CC1CCCN(CCNC(=O)N2c3ccccc3C(=O)Nc3cccnc32)C1 (stereo unspecified)
100 to 101 °C	CN1CC(Oc2ccc(Nc3cc(Br)cn(C)c3=O)nc2)C1
109 to 111 °C	COc1ccc(Nc2ccccc2)c(NS(C)(=O)=O)c1
121 to 122 °C	Cc1ccc(-c2oncc2CCC(=O)O)cc1
146 to 148 °C	CCc1c(CC(=O)NCCCCCCNC(=O)Cc2ccc([N+](=O)[O-])cc2)ccc(OC)c1OC
302 to 304 °C	CCN1C(Oc2ccc(C)cc2)=NS(=O)(=O)N=C1Oc1ccc(C)cc1
106 to 108 °C	COC(=O)CCC(=O)c1ccc2oc3ccccc3c2c1
175 to 178 °C	CN(C)c1ncc(C(=O)NCc2ccccc2)c(S)n1
169 to 170 °C	Cc1c(Cl)ccc2c1N=C(c1ccncc1)OC2c1ccc(Br)cc1 (stereo unspecified)
138 to 140 °C	COc1ccc(OC)c2c1COC(c1ncc(S(=O)(=O)c3ccc(C)cc3)o1)C2 (stereo unspecified)
128 to 129 °C	Cc1oc(-c2ccccc2)nc1COc1ccc(CO)cc1
79 to 82 °C	C=C(Cn1ccnc1)c1cc(F)ccc1OCc1ccc(Cl)cc1Cl
140 to 143 °C	CN(C)CCc1[nH]c2ccccc2c1CSC1=NCCS1
186 to 193 °C	Cn1cc2c(nc(NC(=O)Nc3ccc(CC(=O)NCCCCNC(=O)OC(C)(C)C)cc3)n3nc(-c4ccco4)nc23)n1
161 to 163 °C	COC(=O)C1C=CCN2C(=O)C(CCOS(C)(=O)=O)(Cc3ccccc3)C(=O)N12 (stereo unspecified)
61 to 62 °C	CCCCCCCCCCCCCCCCCCOCCOCCOC(=O)NCc1ccccn1
202 to 204 °C	Cn1ccc(=O)c(OCc2ccccc2)c1C(O)c1ccccn1 (stereo unspecified)
168 to 171 °C	CCOC(=O)Cc1ccc(NC(=O)C(COc2cccnc2)NS(=O)(=O)c2ccc(Br)cc2)cc1 (racemic)

melting point	SMILES
140 to 142 °C	N#CCCNC(=O)C1=CC(CF)(CF)Oc2ccc(Br)cc21
103 to 106 °C	CCCCCCOc1ccc(-c2ncc(Br)cn2)cn1
32 to 34 °C	N#Cc1cscc1Sc1ccccc1
182 to 184 °C	CCOC(=O)COc1ccc2cc(S(N)(=O)=O)sc2c1
146 to 148 °C	CS(=O)(=O)c1ccc(C2=C(c3ccccc3)C(=NO)C2)cc1
86 to 87 °C	Cc1c(-c2ccccc2)oc2c(C#N)cccc12
162 to 163 °C	NS(=O)(=O)c1ccc(-n2nc(CF)cc2-c2ccccc2)cc1
210 to 212 °C	N=c1n(CCO)c2ccccc2n1-c1ccccc1
200 to 202 °C	COCCn1cnc2ccc(-c3sc(N)nc3-c3cccc(C)n3)cc21
113 to 115 °C	Cc1ccc(-c2nc(Cl)c3ccccc3n2)cc1
134 to 136 °C	CN(CCCNc1ncc(CCc2ccccc2)c(=O)[nH]1)c1ccccn1
140 to 141 °C	Cc1nc2n(c(=O)c1CCCl)CCCC2OCc1ccccc1 (stereo unspecified)
153 to 157 °C	N#Cc1cnc(N)nc1-c1ccc(Cl)cc1C(=O)c1ccccc1F
150 to 151 °C	CCOC(=O)c1c(C)nc(-c2ccccc2)nc1-c1cc([N+](=O)[O-])ccc1S(C)(=O)=O
162 to 163 °C	N#CCOc1ccc2cc(-c3cc4ccccc4o3)ccc2c1Cl
> 250 °C	COc1ccc2c(Nc3ccc(C)c(O)c3)c(C#N)cnc2c1
93 to 95 °C	CCc1nn(C(=O)CCCN2CCOCC2)c(CC)c1CCCCCCOc1ccc(OC)cc1Cl
